Experimental data from ChEMBL document CHEMBL3046071, “Synthesis and microbial evaluation of novel N(1)-Arilidene-N(2)-t(3)-methyl-r(2),c(6)-diaryl-piperidin-4-one azine derivatives” (2006).
Converted amounts (≈) assume the structure as drawn.

Assays:
Type in all cases: functional
[1] = tested on: Bacillus subtilis; assay: Antibacterial activity against Bacillus subtilis
[2] = tested on: Staphylococcus aureus; assay: Antibacterial activity against Staphylococcus aureus
[3] = tested on: Candida; assay: Antifungal activity against Candida-6
[4] = tested on: Aspergillus flavus; assay: Antifungal activity against Aspergillus flavus
[5] = tested on: Escherichia coli; assay: Antibacterial activity against Escherichia coli
[6] = tested on: Aspergillus niger; assay: Antifungal activity against Aspergillus niger
[7] = tested on: Candida; assay: Antifungal activity against Candida-51
[8] = tested on: Enterococcus faecalis; assay: Antibacterial activity against Enterococcus faecalis
[9] = tested on: Pseudomonas aeruginosa; assay: Antibacterial activity against Pseudomonas aeruginosa

| SMILES | MIC [1] [µg/mL] | MIC [2] [µg/mL] | MIC [3] [µg/mL] | MIC [4] [µg/mL] | MIC [5] [µg/mL] | MIC [6] [µg/mL] | MIC [7] [µg/mL] | MIC [8] [µg/mL] | MIC [9] [µg/mL] |
| --- | --- | --- | --- | --- | --- | --- | --- | --- | --- |
| CC1/C(=N/N)CC(c2ccccc2)NC1c1ccccc1 (stereo not given) | 100 (≈ 358 µM) | 100 (≈ 358 µM) | 100 (≈ 358 µM) | 100 (≈ 358 µM) |  |  |  |  |  |
| CC1/C(=N/N)CC(c2ccco2)NC1c1ccco1 (stereo not given) | 100 (≈ 386 µM) | 100 (≈ 386 µM) | 100 (≈ 386 µM) | 100 (≈ 386 µM) |  |  |  |  |  |
| CC1/C(=N/N=C/c2ccccc2[N+](=O)[O-])CC(c2ccccc2)NC1c1ccccc1 (stereo not given) | 50 (≈ 121 µM) | 50 (≈ 121 µM) | 100 (≈ 242 µM) | 100 (≈ 242 µM) | 100 (≈ 242 µM) | 50 (≈ 121 µM) | 50 (≈ 121 µM) | 100 (≈ 242 µM) | 50 (≈ 121 µM) |
| CC1/C(=N/N=C/c2ccccc2O)CC(c2ccccc2)NC1c1ccccc1 (stereo not given) | 50 (≈ 130 µM) | 50 (≈ 130 µM) | 50 (≈ 130 µM) | 100 (≈ 261 µM) | 100 (≈ 261 µM) | 100 (≈ 261 µM) | 25 (≈ 65.2 µM) | 50 (≈ 130 µM) | 50 (≈ 130 µM) |
| CC1/C(=N/N=C/c2ccco2)CC(c2ccccc2)NC1c1ccccc1 (stereo not given) | 12.5 (≈ 35 µM) | 12.5 (≈ 35 µM) | 12.5 (≈ 35 µM) | 50 (≈ 140 µM) | 25 (≈ 69.9 µM) | 12.5 (≈ 35 µM) | 12.5 (≈ 35 µM) | 50 (≈ 140 µM) | 50 (≈ 140 µM) |
| CC1/C(=N/N=C/c2ccccc2Cl)CC(c2ccco2)NC1c1ccco1 (stereo not given) | 6.25 (≈ 16.4 µM) | 25 (≈ 65.5 µM) | 12.5 (≈ 32.7 µM) | 50 (≈ 131 µM) | 12.5 (≈ 32.7 µM) | 25 (≈ 65.5 µM) | 12.5 (≈ 32.7 µM) | 25 (≈ 65.5 µM) | 25 (≈ 65.5 µM) |
| CC1/C(=N/N=C2\CC(c3ccccc3)NC(c3ccccc3)C2C)CC(c2ccccc2)NC1c1ccccc1 (mixture of isomers) | 100 | 100 | 50 | 100 | 50 | 100 | 100 | 100 | 100 |
| C/C(=N\N=C1/CC(c2ccccc2)NC(c2ccccc2)C1C)c1ccccc1 (mixture of isomers) | 12.5 | 50 | 25 | 100 | 12.5 | 50 | 50 | 25 | 25 |
| COc1ccc(/C=N/N=C2\CC(c3ccccc3)NC(c3ccccc3)C2C)cc1 (mixture of isomers) | 6.25 | 25 | 12.5 | 100 | 12.5 | 50 | 12.5 | 25 | 50 |
| C[C@@H]1[C@H](O)[C@@H](C)/C=C/C=C/C=C/C=C/C=C/C=C/C=C/[C@H](O[C@@H]2O[C@H](C)[C@@H](O)[C@H](N)[C@@H]2O)C[C@@H]2O[C@](O)(C[C@@H](O)C[C@@H](O)[C@H](O)CC[C@@H](O)C[C@@H](O)CC(=O)O[C@H]1C)C[C@H](O)[C@H]2C(=O)O [AMPHOTERICIN B] |  |  | 25 (≈ 27.1 µM) | 50 (≈ 54.1 µM) |  | 50 (≈ 54.1 µM) | 25 (≈ 27.1 µM) |  |  |
| CN[C@@H]1[C@H](O[C@H]2[C@H](O[C@H]3[C@H](O)[C@@H](O)[C@H](N=C(N)N)[C@@H](O)[C@@H]3N=C(N)N)O[C@@H](C)[C@]2(O)C=O)O[C@@H](CO)[C@H](O)[C@H]1O [STREPTOMYCIN] | 12.5 (≈ 21.5 µM) | 25 (≈ 43 µM) |  |  | 12.5 (≈ 21.5 µM) |  |  | 50 (≈ 86 µM) | 25 (≈ 43 µM) |
